From patent US9975876B2, “2-pyridyloxy-3-ester-4-ether orexin receptor antagonists” (MERCK SHARP & DOHME CORP., priority 2013, dated 2018)

Tests used:
hOX1R = hOX1R (Homo sapiens, UniProt O43613); assay: FLIPR Ca2+ flux assay, orexin-1 receptor antagonism; assay type: cell-based; settings: CHO cells; agonist 70 pM Ala-6,12 human orexin-A
human orexin-2 receptor = human orexin-2 receptor (Homo sapiens (Human), UniProt O43614); assay: FLIPR Ca2+ flux assay, orexin-2 receptor antagonism; assay type: cell-based; settings: CHO cells; agonist 70 pM Ala-6,12 human orexin-A; read-out: hOX2R FLIPR IC50
Method: In a typical experiment the OX1 and OX2 receptor antagonistic activity of the compounds of the present invention was determined in accordance with the following experimental method. For intracellular calcium measurements, Chinese hamster ovary (CHO) cells expressing the rat orexin-1 receptor or the human orexin-2 receptor, are grown in Iscove's modified DMEM containing 2 mM L-glutamine, […], 1% hypoxanthine-thymidine supplement, 100 U/ml penicillin, 100 μg/ml streptomycin and 10% heat-inactivated fetal calf serum (FCS). The cells are seeded at 20,000 cells/well into Becton-Dickinson black 384-well clear bottom sterile plates coated with poly-D-lysine. All reagents were from GIBCO-Invitrogen Corp. The seeded plates are incubated overnight at 37° C. and 5% CO2. Ala-6,12 human orexin-A as the agonist is prepared as a 1 mM stock solution in 1% bovine serum albumin (BSA) and diluted in assay buffer (HBSS containing 20 mM HEPES, 0.1% BSA and 2.5 mM probenecid, pH7.4) for use in the assay at a final concentration of 70 pM. Test compounds are prepared as 10 mM stock solution in DMSO, then diluted in 384-well plates, first in DMSO, then assay buffer. On the day of the assay, cells are washed 3 times with 100 μl assay buffer and then incubated for 60 min (37° C., 5% CO2) in 60 μl assay buffer containing 1 μM Fluo-4AM ester, 0.02% pluronic acid, and 1% BSA. The dye loading solution is then aspirated and cells are washed 3 times with 100 μl assay buffer. 30 μl of that same buffer is left in each well. Within the Fluorescent Imaging Plate Reader (FLIPR, Molecular Devices), test compounds are added to the plate in a volume of 25 μl, incubated for 5 min and finally 25 μl of agonist is added. Fluorescence is measured for each well at 1 second intervals for 5 minutes and the height of each fluorescence peak is compared to the height of the fluorescence peak induced by 70 pM Ala-6,12 orexin-A with buffer in place of antagonist. […] The intrinsic orexin receptor antagonist activity of a compound which may be used in the present invention may be determined by these assays.

human orexin-2 receptor, sequence (O43614 whole entry): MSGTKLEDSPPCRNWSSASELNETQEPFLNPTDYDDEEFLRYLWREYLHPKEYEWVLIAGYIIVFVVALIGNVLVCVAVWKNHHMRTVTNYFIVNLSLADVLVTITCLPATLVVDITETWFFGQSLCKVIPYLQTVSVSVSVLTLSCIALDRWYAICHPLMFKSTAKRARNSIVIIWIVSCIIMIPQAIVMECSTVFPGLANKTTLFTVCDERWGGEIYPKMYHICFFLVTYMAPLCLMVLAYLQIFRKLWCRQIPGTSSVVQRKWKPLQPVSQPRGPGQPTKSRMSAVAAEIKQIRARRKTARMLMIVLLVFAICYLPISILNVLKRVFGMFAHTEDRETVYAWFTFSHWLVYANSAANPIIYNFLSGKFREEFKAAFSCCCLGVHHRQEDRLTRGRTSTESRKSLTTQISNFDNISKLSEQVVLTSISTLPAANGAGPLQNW

## COC(=O)c1c(OC)ccnc1O[C@@H]1CC[C@@H](C)N(C(=O)c2ccccc2-n2nccn2)C1 [Example 1, Methyl 4-methoxy-2-{[(3R,6R)-6-methyl-1-{[2-(2H-1,2,3-triazol-2-yl)phenyl]carbonyl}piperidin-3-yl]oxy}pyridine-3-carboxylate]
hOX1R
  IC50: 1340 nM
Human orexin-2 receptor
  IC50: 33 nM

## COC(=O)c1c(OC)ccnc1O[C@@H]1CC[C@@H](C)N(C(=O)c2cccc(F)c2-n2nccn2)C1 [Example 2, Methyl 2-{[(3R,6R)-1-{[3-fluoro-2-(2H-1,2,3-triazol-2-yl)phenyl]carbonyl}-6-methylpiperidin-3-yl]oxy}-4-methoxypyridine-3-carboxylate]
hOX1R
  IC50: 2900 nM
Human orexin-2 receptor
  IC50: 37 nM

## COC(=O)c1c(OC)ccnc1O[C@@H]1CC[C@@H](C)N(C(=O)c2ccc(Cl)cc2-n2nccn2)C1 [Example 3]
hOX1R
  IC50: 1420 nM
Human orexin-2 receptor
  IC50: 33.6 nM

## COC(=O)c1c(OC)ccnc1O[C@@H]1CC[C@@H](C)N(C(=O)c2ccc(F)cc2-n2nccn2)C1 [Example 4, methyl 2-{[(3R,6R)-1-{[4-fluoro-2-(2H-1,2,3-triazol-2-yl)phenyl]carbonyl}-6-methylpiperidin-3-yl]oxy}-4-methoxypyridine-3-carboxylate]
hOX1R
  IC50: 3200 nM
Human orexin-2 receptor
  IC50: 764 nM

## COC(=O)c1c(OC)ccnc1O[C@@H]1CC[C@@H](C)N(C(=O)c2ccc(F)cc2-c2nc(C)no2)C1 [Example 5, methyl 2-{[(3R,6R)-1-{[4-fluoro-2-(3-methyl-1,2,4-oxadiazol-5-yl)phenyl]carbonyl}-6-methylpiperidin-3-yl]oxy}-4-methoxypyridine-3-carboxylate]
hOX1R
  IC50: 3100 nM
Human orexin-2 receptor
  IC50: 52 nM

## COC(=O)c1c(OC)ccnc1O[C@@H]1CC[C@@H](C)N(C(=O)c2c(F)cccc2-n2nccn2)C1 [Example 6, methyl 2-{[(3R,6R)-1-{[2-fluoro-6-(2H-1,2,3-triazol-2-yl)phenyl]carbonyl}-6-methylpiperidin-3-yl]oxy}-4-methoxypyridine-3-carboxylate]
hOX1R
  IC50: 2310 nM
Human orexin-2 receptor
  IC50: 82.9 nM

## COC(=O)c1c(OC)ccnc1O[C@@H]1CC[C@@H](C)N(C(=O)c2cc(F)ccc2-n2nccn2)C1 [Example 7, methyl 2-{[(3R,6R)-1-{[5-fluoro-2-(2H-1,2,3-triazol-2-yl)phenyl]carbonyl}-6-methylpiperidin-3-yl]oxy}-4-methoxypyridine-3-carboxylate]
hOX1R
  IC50: 1460 nM
Human orexin-2 receptor
  IC50: 27.6 nM

## COC(=O)c1c(OC)ccnc1O[C@@H]1CC[C@@H](C)N(C(=O)c2c(F)cccc2-c2noc(C)n2)C1 [Example 8, methyl 2-{[(3R,6R)-1-{[2-fluoro-6-(5-methyl-1,2,4-oxadiazol-3-yl)phenyl]carbonyl}-6-methylpiperidin-3-yl]oxy}-4-methoxypyridine-3-carboxylate]
hOX1R
  IC50: 10000 nM
Human orexin-2 receptor
  IC50: 71.1 nM

## COC(=O)c1c(OC)ccnc1O[C@@H]1CC[C@@H](C)N(C(=O)c2cc(F)ccc2-c2noc(C)n2)C1 [Example 9]
hOX1R
  IC50: 1500 nM
Human orexin-2 receptor
  IC50: 36.7 nM

## COC(=O)c1c(OC)ccnc1O[C@@H]1CC[C@@H](C)N(C(=O)c2ccc(F)cc2-c2noc(C)n2)C1 [Example 10, methyl 2-{[(3R,6R)-1-{[4-fluoro-2-(5-methyl-1,2,4-oxadiazol-3-yl)phenyl]carbonyl}-6-methylpiperidin-3-yl]oxy}-4-methoxypyridine-3-carboxylate]
hOX1R
  IC50: 10000 nM
Human orexin-2 receptor
  IC50: 58.7 nM

## COC(=O)c1c(OC)ccnc1O[C@@H]1CC[C@@H](C)N(C(=O)c2cccc(F)c2-c2noc(C)n2)C1 [Example 11, methyl 2-{[(3R,6R)-1-{[3-fluoro-2-(5-methyl-1,2,4-oxadiazol-3-yl)phenyl]carbonyl}-6-methylpiperidin-3-yl]oxy}-4-methoxypyridine-3-carboxylate]
hOX1R
  IC50: 2270 nM
Human orexin-2 receptor
  IC50: 31.8 nM

## COC(=O)c1c(OC)ccnc1O[C@@H]1CC[C@@H](C)N(C(=O)c2c(F)cccc2-c2nc(C)no2)C1 [Example 12, methyl 2-{[(3R,6R)-1-{[2-fluoro-6-(3-methyl-1,2,4-oxadiazol-5-yl)phenyl]carbonyl}-6-methylpiperidin-3-yl]oxy}-4-methoxypyridine-3-carboxylate]
hOX1R
  IC50: 4470 nM

## COC(=O)c1c(OC)ccnc1O[C@@H]1CC[C@@H](C)N(C(=O)c2cc(F)ccc2-c2nc(C)no2)C1 [Example 13, methyl 2-{[(3R,6R)-1-{[5-fluoro-2-(3-methyl-1,2,4-oxadiazol-5-yl)phenyl]carbonyl}-6-methylpiperidin-3-yl]oxy}-4-methoxypyridine-3-carboxylate]
hOX1R
  IC50: 1160 nM
Human orexin-2 receptor
  IC50: 34.6 nM

## COC(=O)c1c(OC)ccnc1O[C@@H]1CC[C@@H](C)N(C(=O)c2cccc(C)c2-n2nccn2)C1 [Example 14, methyl 4-methoxy-2-{[(3R,6R)-6-methyl-1-{[3-methyl-2-(2H-1,2,3-triazol-2-yl)phenyl]carbonyl}piperidin-3-yl]oxy}pyridine-3-carboxylate]
hOX1R
  IC50: 777 nM
Human orexin-2 receptor
  IC50: 37.9 nM

## COC(=O)c1c(OC)ccnc1O[C@@H]1CC[C@@H](C)N(C(=O)c2ccc(OC)cc2-n2nccn2)C1 [Example 15, methyl 4-methoxy-2-{[(3R,6R)-1-{[4-methoxy-2-(2H-1,2,3-triazol-2-yl)phenyl]carbonyl}-6-methylpiperidin-3-yl]oxy}pyridine-3-carboxylate]
hOX1R
  IC50: 10000 nM
Human orexin-2 receptor
  IC50: 51 nM

## COC(=O)c1c(OC)ccnc1O[C@@H]1CC[C@@H](C)N(C(=O)c2ccc(OC)nc2-n2nccn2)C1 [Example 17, methyl 4-methoxy-2-{[(3R,6R)-1-{[6-methoxy-2-(2H-1,2,3-triazol-2-yl)pyridin-3-yl]carbonyl}-6-methylpiperidin-3-yl]oxy}pyridine-3-carboxylate]
hOX1R
  IC50: 10000 nM
Human orexin-2 receptor
  IC50: 52 nM

## COC(=O)c1c(OC)ccnc1O[C@@H]1CC[C@@H](C)N(C(=O)c2cccc(F)c2-c2nc(C)no2)C1 [Example 18, methyl 2-{[(3R,6R)-1-{[3-fluoro-2-(3-methyl-1,2,4-oxadiazol-5-yl)phenyl]carbonyl}-6-methylpiperidin-3-yl]oxy}-4-methoxypyridine-3-carboxylate]
hOX1R
  IC50: 932 nM
Human orexin-2 receptor
  IC50: 39.5 nM

## COC(=O)c1c(OC)ccnc1O[C@@H]1CC[C@@H](C)N(C(=O)c2ccccc2-c2ncccn2)C1 [Example 19]
hOX1R
  IC50: 1870 nM
Human orexin-2 receptor
  IC50: 114 nM

## COC(=O)c1c(OC)ccnc1O[C@@H]1CC[C@@H](C)N(C(=O)c2ccc(F)cc2-c2ncccn2)C1 [Example 21, methyl 2-({(3R,6R)-1-[(4-fluoro-2-pyrimidin-2-ylphenyl)carbonyl]-6-methylpiperidin-3-yl}oxy)-4-methoxypyridine-3-carboxylate]
hOX1R
  IC50: 1460 nM
Human orexin-2 receptor
  IC50: 71.2 nM

## COC(=O)c1c(OC)ccnc1O[C@@H]1CC[C@@H](C)N(C(=O)c2cccc(F)c2-c2ncccn2)C1 [Example 22, methyl 2-({(3R,6R)-1-[(3-fluoro-2-pyrimidin-2-ylphenyl)carbonyl]-6-methylpiperidin-3-yl}oxy)-4-methoxypyridine-3-carboxylate]
hOX1R
  IC50: 3780 nM
Human orexin-2 receptor
  IC50: 117 nM

## COC(=O)c1c(OC)ccnc1O[C@@H]1CC[C@@H](C)N(C(=O)c2ccccc2-n2ncnn2)C1 [Example 23, Methyl 4-methoxy-2-{[(3R,6R)-6-methyl-1-{[2-(2H-tetrazol-2-yl)phenyl]carbonyl}piperidin-3-yl]oxy}pyridine-3-carboxylate]
hOX1R
  IC50: 2140 nM
Human orexin-2 receptor
  IC50: 27.7 nM
